Measurements as given in patent publication US10669637B2, “Purine-based corrosion inhibitors” (Ecolab USA Inc., priority 2015, dated 2020).

Assay: Copper corrosion rate by linear polarization resistance
Conditions: for No FRC Corrosion Rate (mpy) / 1 ppm FRC Corrosion Rate (mpy): copper coupons, 5 ppm inhibitor, pH 7.0, 45° C.; for No FRC Corrosion Rate (mpy): absence of bleach, average over 20 to 24 hour period; for 1 ppm FRC Corrosion Rate (mpy): bleach maintained at 1 ppm FRC
Description: In addition, the corrosion rate of copper in the presence of benzimidazole, tolyltriazole, imidazole, pyrimidine, 6,6-dimethyladenine, and 6-methylpurine was determined using linear polarization resistance measurements. […] For each experiment, cylindrical copper coupons pre-polished using SIC 600 paper and fitted on a Pine rotator were immersed in a solution of corrosion inhibitor. […] The pH of the test water was maintained at 7.0 using carbon dioxide, and the water temperature was maintained at 45° C. throughout the experiment. […] Density: 8.92 g/cm^3; Copper Eq. Weight: 63.54 g; and Initial delay: 30 seconds. Next, the copper samples were exposed to a 25% bleach solution. […] The Rp in the absence and presence of bleach was collected and analyzed, and the average corrosion rate was calculated and recorded in Table 1. Corrosion rates were calculated in mils per year (mpy).

Compound	No FRC Corrosion Rate (mpy)	1 ppm FRC Corrosion Rate (mpy)	change of copper corrosion rate upon the addition of bleach (1 ppm FRC)	No FRC Corrosion Rate (mpy) (listed as adenine)	1 ppm FRC Corrosion Rate (mpy) (listed as adenine)
c1c[nH]cn1 [Compound 8, Imidazole]	0.69	1.1			
c1ccc2[nH]cnc2c1 [Compound 6, Benzimidazole]	0.0890	0.9594			
Oc1ncnc2nc[nH]c12 [Compound 4, Hypoxanthine]	0.1036	0.1684			
CN(C)c1ncnc2nc[nH]c12 [Compound 10, 6,6-Dimethyladenine]	0.68	0.66			
Tolyltriazole [Compound 7]	0.0214	0.0995			
Nc1ncnc2nc[nH]c12 [Compound 5, Adenine]	0.1665	0.3571	observed increase	0.16	0.35
Clc1ncnc2nc[nH]c12 [Compound 3, 6-Chloropurine]	0.04	0.16			
c1cncnc1 [Compound 9, Pyrimidine]	1.2	0.79			
Cc1ncnc2nc[nH]c12 [Compound 11, 6-Methylpurine]	0.74	0.44			
